Biological target: human F508del-CFTR (Homo sapiens, UniProt P13569, DEL508-508)
Test: F508del-CFTR cell surface expression (corrector activity), DiscoveRx ß-galactosidase complementation chemiluminescence assay in recombinant U2OS cell line;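 further: U2OS cells co-expressing ProLink-tagged F508del-CFTR and a membrane-anchored enzyme acceptor, where more surface CFTR restores β-galactosidase activity measured by chemiluminescence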
Conditions: for EC50: EC50, F508del-CFTR cell surface expression; for Emax: U2OS
[1] = U2OS cells, 16h compound incubation, geomean of several measurements
[2] = in relation to the Emax of the corrector lumacaftor (=100%), U2OS cells, 16h compound incubation, arithmetic mean
[3] = U2OS cell line, 16h compound incubation, geomean values
[4] = in relation to the Emax of the corrector lumacaftor (=100%), U2OS cell line, 16h compound incubation, arithmetic mean values

Chain of human F508del-CFTR (P13569 with tags, fused parts or gaps DEL508-508): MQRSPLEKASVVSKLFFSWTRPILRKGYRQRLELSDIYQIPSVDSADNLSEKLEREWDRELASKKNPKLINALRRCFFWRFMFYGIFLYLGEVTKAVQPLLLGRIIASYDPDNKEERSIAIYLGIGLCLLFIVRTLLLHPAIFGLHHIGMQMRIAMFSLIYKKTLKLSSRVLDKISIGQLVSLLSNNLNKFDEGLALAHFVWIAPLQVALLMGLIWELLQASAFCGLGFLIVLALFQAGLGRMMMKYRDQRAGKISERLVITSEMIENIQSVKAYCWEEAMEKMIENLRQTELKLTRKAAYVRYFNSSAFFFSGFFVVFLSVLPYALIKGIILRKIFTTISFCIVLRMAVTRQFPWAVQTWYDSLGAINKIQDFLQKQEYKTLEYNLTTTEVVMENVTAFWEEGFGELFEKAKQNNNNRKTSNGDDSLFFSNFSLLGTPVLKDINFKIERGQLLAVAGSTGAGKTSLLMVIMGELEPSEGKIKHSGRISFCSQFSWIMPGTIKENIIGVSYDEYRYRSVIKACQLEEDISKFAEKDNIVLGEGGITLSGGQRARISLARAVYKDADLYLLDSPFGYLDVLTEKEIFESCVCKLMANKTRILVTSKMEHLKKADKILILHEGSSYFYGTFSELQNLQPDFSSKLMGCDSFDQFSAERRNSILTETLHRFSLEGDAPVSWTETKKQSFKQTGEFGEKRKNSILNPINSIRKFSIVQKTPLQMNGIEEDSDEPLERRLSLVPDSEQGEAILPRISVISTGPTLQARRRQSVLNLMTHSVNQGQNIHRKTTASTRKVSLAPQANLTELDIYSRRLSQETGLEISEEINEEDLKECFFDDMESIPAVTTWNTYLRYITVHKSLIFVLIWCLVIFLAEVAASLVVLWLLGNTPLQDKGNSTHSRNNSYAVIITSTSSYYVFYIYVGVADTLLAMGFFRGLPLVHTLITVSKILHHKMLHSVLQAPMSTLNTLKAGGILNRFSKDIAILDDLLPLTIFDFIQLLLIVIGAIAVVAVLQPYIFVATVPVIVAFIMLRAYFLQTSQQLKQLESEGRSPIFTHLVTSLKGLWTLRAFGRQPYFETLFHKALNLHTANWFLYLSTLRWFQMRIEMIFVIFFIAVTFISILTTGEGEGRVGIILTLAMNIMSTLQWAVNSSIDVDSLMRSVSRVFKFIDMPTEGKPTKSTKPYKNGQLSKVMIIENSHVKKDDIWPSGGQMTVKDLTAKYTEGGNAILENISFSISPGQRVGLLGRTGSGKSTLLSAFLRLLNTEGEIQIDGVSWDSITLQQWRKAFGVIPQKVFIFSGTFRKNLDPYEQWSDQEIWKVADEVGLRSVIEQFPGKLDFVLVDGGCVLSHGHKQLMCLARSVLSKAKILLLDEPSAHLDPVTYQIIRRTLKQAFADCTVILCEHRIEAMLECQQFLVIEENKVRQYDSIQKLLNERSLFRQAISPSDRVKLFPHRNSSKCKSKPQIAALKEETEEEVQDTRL

Row | SMILES | EC50 [1] [nM] | Emax [2] [%] | EC50 [3] [nM] | Emax [4] [%] | other results
1 | COc1nc(C)cc2c1C(=O)N[C@H](C(=O)NC[C@@H](O)c1nc(C3CC3)no1)CC(=O)N(C)[C@@H](CC(C)C)C(=O)N(C)[C@H](Cc1nc(C(F)(F)F)no1)C(=O)N[C@H](Cc1ccccc1)CO2 [Example 943, (3R,6R,9S,13S)-3-benzyl-N-((R)-2-(3-cyclopropyl-1,2,4-oxadiazol-5-yl)-2-hydroxyethyl)-9-isobutyl-16-methoxy-7,10,18-trimethyl-5,8,11,15-tetraoxo-6-((3-(trifluoromethyl)-1,2,4-oxadiazol-5-yl)methyl)-2,3,4,5,6,7,8,9,10,11,12,13,14,15-tetradecahydropyrido[3,4-p][1]oxa[4,7,10,14]tetraazacycloheptadecine-13-carboxamide] | 240 | 471 | – | – | –
2 | CC(C)C[C@H]1C(=O)N(C)[C@H](Cc2nc(C(F)(F)F)no2)C(=O)N[C@H](Cc2ccccc2)COc2ccc3ncc(F)cc3c2C(=O)N[C@H](C(=O)NCCn2nnc(C3CC3)n2)CC(=O)N1C [Example 924, (3S,7S,10R,13R)-13-benzyl-N-(2-(5-cyclopropyl-2H-tetrazol-2-yl)ethyl)-20-fluoro-7-isobutyl-6,9-dimethyl-1,5,8,11-tetraoxo-10-((3-(trifluoromethyl)-1,2,4-oxadiazol-5-yl)methyl)-1,2,3,4,5,6,7,8,9,10,11,12,13,14-tetradecahydro-[1]oxa[4,7,10,14]tetraazacycloheptadecino[16,17-f]quinoline-3-carboxamide] | 33 | 409 | – | – | –
3 | COc1cccc(CCNC(=O)[C@@H]2CC(=O)N(C)[C@@H](CC(C)C)C(=O)N(C)[C@H](CCc3ccccc3)C(=O)N[C@H](Cc3ccccc3)COc3cc(C)nc(OC)c3C(=O)N2)c1 [Example 875, (3R,6R,9S,13S)-3-benzyl-9-isobutyl-16-methoxy-N-(3-methoxyphenethyl)-7,10,18-trimethyl-5,8,11,15-tetraoxo-6-phenethyl-2,3,4,5,6,7,8,9,10,11,12,13,14,15-tetradecahydropyrido[3,4-p][1]oxa[4,7,10,14]tetraazacycloheptadecine-13-carboxamide] | 21 | 333 | – | – | –
4 | CC(C)C[C@H]1C(=O)N(C)C2(CC2)C(=O)N[C@H](Cc2ccccc2)COc2cnc3ccccc3c2C(=O)N[C@H](C(=O)NCCc2nc(CC3CC3)no2)CC(=O)N1C [Example 764, (3'S,7'S,13′R)-13′-Benzyl-N-(2-(3-(cyclopropylmethyl)-1,2,4-oxadiazol-5-yl)ethyl)-7′-isobutyl-6′,9′-dimethyl-1′,5′,8′,11′-tetraoxo-2′,3′,4′,5′,6′,7′,8′,9′,11′,12′,13′,14′-dodecahydro-1′H-spiro[cyclopropane-1,10′-[1]oxa[4,7,10,14]tetraazacycloheptadecino[17,16-c]quinoline]-3′-carboxamide] | – | – | – | – | EC50 (U2OS cells, 16h compound incubation, geomean values): 374 nM; Emax (in relation to Emax of corrector lumacaftor (=100%), arithmetic mean values): 315%
5 | CC(C)C[C@H]1C(=O)N(C)CC(=O)N[C@H](Cc2ccccc2)COc2cccc(Cl)c2C(=O)N[C@H](C(=O)NCCc2ccc3c(c2)OCO3)CC(=O)N1C [Example 279, (3R,9S,13S)-N-(2-(benzo[d][1,3]dioxol-5-yl)ethyl)-3-benzyl-16-chloro-9-isobutyl-7,10-dimethyl-5,8,11,15-tetraoxo-2,3,4,5,6,7,8,9,10,11,12,13,14,15-tetradecahydrobenzo[p][1]oxa[4,7,10,14]tetraazacycloheptadecine-13-carboxamide] | – | – | 643 | 112 | –
6 | CC(C)C[C@H]1C(=O)N(CCC2CCCCC2)CC(=O)N[C@H](Cc2ccccc2)COc2ccncc2C(=O)N[C@H](C(=O)NCCc2ccc3c(c2)OCCC3)CC(=O)N1C [Example 261, (3R,9S,13S)-3-benzyl-N-(2-(chroman-7-yl)ethyl)-7-(2-cyclohexylethyl)-9-isobutyl-10-methyl-5,8,11,15-tetraoxo-2,3,4,5,6,7,8,9,10,11,12,13,14,15-tetradecahydropyrido[3,4-p][1]oxa[4,7,10,14]tetraazacycloheptadecine-13-carboxamide] | – | – | 327 | 215 | –

Reference: patent US20240208992A1, “MACROCYCLES AS CFTR MODULATORS” (Idorsia Pharmaceuticals Ltd, priority 2021, published 2024)
